{
  "source": "patent US9926340B2",
  "about": "“NAD analogs and methods of using said NAD analogs in determining ribosylation of proteins with PARP mutants” (The Board of Regents of the University of Texas System, priority 2015, dated 2018)",
  "key": {"PARP-1": {"target": "T1, PARP-1 (Homo sapiens, UniProt P09874)", "T1 construct": "His10; made in house; host or cells: E. coli BL21(DE3) (inferred)", "test": "PARP-1 enzyme kinetics assay (LC-HPLC of nicotinamide formation)", "type": "biochemical", "settings": "250 nM PARP-1, 10-500 μM analog; data not shown", "description": "(§1) The enzyme kinetics of wild-type and analog-sensitive mutants of human PARP-1 were determined essentially as previously described (Jiang et al., 2010). Purified PARP-1 proteins were incubated for 5 minutes in PARP Enzyme Kinetics Buffer (50 mM Tris.HCl, pH 7.9, 4 mM MgCl2) containing 0.5 mg/mL sonicated salmon sperm DNA (Stratagene) at 25° C. with 10, 20, 30, 50, 100, 250, and 500 μM NAD^+ or 8-Bu(3-yne)T-NAD^+. The concentrations of the purified PARP-1 proteins were (1) 25 nM for PARP-1 with NAD^+, (2) 50 nM for PARP-1(L877A) with NAD^+, and […] 250 nM for PARP-1 and PARP-1(L877A) with 8-bu(3-yne)T-NAD^+. The reactions were brought to 450 mM perchloric acid (HClO4) to stop them, incubated for 5 minutes on ice, and then brought to […] potassium carbonate (K2CO3) to quench them. The quenched reactions were centrifuged at maximum speed in a microcentrifuge at 4° C., and the supernatant containing small molecules from the automodification reaction was collected.\n(§2) The supernatants from the extracted ADP-ribosylation reactions were analyzed using a Shimadzu LCMS-QP8000α with a Phenomenex Kinetex C18 column (150×4.6 mm, 5 μm XB-C18 100A) monitored at 260 nm. […] Quantitative values for the small molecules and metabolites were obtained by comparison to a standard curve. […]"}, "PARP-1 (L877A)": {"target": "T2, PARP-1 (L877A) (Homo sapiens, UniProt P09874, L877A)", "T2 construct": "His10; made in house; host or cells: E. coli BL21(DE3) (inferred)", "T2 sequence (P09874 whole entry L877A)": "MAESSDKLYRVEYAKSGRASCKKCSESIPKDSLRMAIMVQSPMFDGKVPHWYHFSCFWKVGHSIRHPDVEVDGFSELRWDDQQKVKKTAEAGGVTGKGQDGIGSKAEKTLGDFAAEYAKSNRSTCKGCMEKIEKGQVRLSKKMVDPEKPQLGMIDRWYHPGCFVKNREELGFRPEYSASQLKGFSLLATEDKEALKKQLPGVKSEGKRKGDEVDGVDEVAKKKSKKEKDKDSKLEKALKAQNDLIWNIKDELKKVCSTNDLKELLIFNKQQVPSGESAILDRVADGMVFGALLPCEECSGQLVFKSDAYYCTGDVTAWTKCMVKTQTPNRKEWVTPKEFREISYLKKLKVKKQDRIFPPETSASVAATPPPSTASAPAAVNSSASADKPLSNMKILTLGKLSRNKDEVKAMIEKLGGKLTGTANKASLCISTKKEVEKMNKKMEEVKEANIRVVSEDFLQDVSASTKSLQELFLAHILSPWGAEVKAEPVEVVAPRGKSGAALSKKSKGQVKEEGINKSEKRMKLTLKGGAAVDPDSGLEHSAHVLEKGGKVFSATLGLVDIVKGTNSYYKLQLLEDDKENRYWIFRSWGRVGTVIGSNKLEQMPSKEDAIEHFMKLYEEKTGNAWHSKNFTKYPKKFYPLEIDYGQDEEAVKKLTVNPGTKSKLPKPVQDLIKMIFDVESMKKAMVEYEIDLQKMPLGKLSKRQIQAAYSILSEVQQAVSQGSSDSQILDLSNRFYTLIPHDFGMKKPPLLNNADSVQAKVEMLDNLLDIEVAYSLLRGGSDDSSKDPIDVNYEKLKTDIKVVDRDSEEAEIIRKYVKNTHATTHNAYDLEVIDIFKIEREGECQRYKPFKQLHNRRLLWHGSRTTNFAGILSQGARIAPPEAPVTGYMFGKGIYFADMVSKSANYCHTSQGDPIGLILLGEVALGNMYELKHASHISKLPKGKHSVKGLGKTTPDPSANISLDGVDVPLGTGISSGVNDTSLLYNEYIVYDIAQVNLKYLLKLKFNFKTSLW", "test": "PARP-1 enzyme kinetics assay (LC-HPLC of nicotinamide formation)", "type": "biochemical", "settings": "250 nM PARP-1(L877A), 10-500 μM analog, 25° C., 5 minutes", "description": "as §1, §2"}},
  "data": [
    {"smiles": "C#CCCSc1nc2c(N)ncnc2n1[C@@H]1O[C@H](COP(=O)(O)OP(=O)(O)OC[C@H]2O[C@@H]([n+]3cccc(C(N)=O)c3)C(O)C2O)[C@H](O)C1O", "note": "(some centres unmarked) [8-Bu(3-yne)T-NAD^+]", "values": [
      {"measurement": "saturation of PARylation activity", "setting": "PARP-1", "result": "No saturation was detectable"},
      {"measurement": "enzyme kinetics compared to PARP-1 and NAD+", "setting": "PARP-1 (L877A)", "result": "nearing wild-type enzyme kinetics"}
    ]}
  ]
}
